{
  "source": "BindingDB's records for doi:10.1021/jm00008a012",
  "about": "(University of Minnesota, 1995)",
  "key": {"[1]": {"experiment": "Tested for binding affinity against delta2 opioid receptor using [3H]DSLET as a radioligand in the guinea pig brain membranes."}, "[2]": {"experiment": "Tested for binding affinity against delta1 opioid receptor using [3H]-DPDPE as a radioligand in the guinea pig brain membranes."}},
  "data": [
    {"smiles": "Oc1ccc2c3c1O[C@H]1c4c(c5ccccc5n4Cc4cccc(N=C=S)c4)C[C@@]4(O)C(C2)N(CC2CC2)CCC314", "note": "(stereo partly drawn) [22-cyclopropylmethyl-11-(3-isothiocyanatobenzyl)-14-oxa-11,22-diazaheptacyclo[13.9.1.01,13.02,21.04,12.05,10.019,25]pentacosa-4(12),5(10),6,8,15,17,19(25)-heptaene-2,16-diol]", "values": [
      {"measurement": "Ki", "setting": "[1]", "value": 7, "unit": "nM"},
      {"measurement": "Ki", "setting": "[2]", "value": 4.2, "unit": "nM"}
    ]},
    {"smiles": "O=C(CBr)Nc1cccc(Cn2c3c(c4ccccc42)C[C@@]2(O)C4Cc5ccc(O)c6c5C2(CCN4CC2CC2)[C@H]3O6)c1", "note": "(stereo partly drawn) [1N-{3-[22-cyclopropylmethyl-2,16-dihydroxy-14-oxa-11,22-diazaheptacyclo[13.9.1.01,13.02,21.04,12.05,10.019,25]pentacosa-4(12),5(10),6,8,15,17,19(25)-heptaen-11-ylmethyl]phenyl}-2-bromoacetamide]", "values": [
      {"measurement": "Ki", "setting": "[1]", "value": 0.038, "unit": "nM"},
      {"measurement": "Ki", "setting": "[2]", "value": 0.019, "unit": "nM"}
    ]},
    {"smiles": "Oc1ccc2c3c1O[C@H]1c4c(c5ccccc5n4Cc4ccccc4N=C=S)C[C@@]4(O)C(C2)N(CC2CC2)CCC314", "note": "(stereo partly drawn) [22-cyclopropylmethyl-11-(2-isothiocyanatobenzyl)-14-oxa-11,22-diazaheptacyclo[13.9.1.01,13.02,21.04,12.05,10.019,25]pentacosa-4(12),5(10),6,8,15,17,19(25)-heptaene-2,16-diol]", "values": [
      {"measurement": "Ki", "setting": "[1]", "value": 3.6, "unit": "nM"},
      {"measurement": "Ki", "setting": "[2]", "value": 2, "unit": "nM"}
    ]},
    {"smiles": "Oc1ccc2c3c1O[C@H]1c4c(c5ccccc5n4Cc4ccc(N=C=S)cc4)C[C@@]4(O)C(C2)N(CC2CC2)CCC314", "note": "(stereo partly drawn) [22-cyclopropylmethyl-11-(4-isothiocyanatobenzyl)-14-oxa-11,22-diazaheptacyclo[13.9.1.01,13.02,21.04,12.05,10.019,25]pentacosa-4(12),5(10),6,8,15,17,19(25)-heptaene-2,16-diol]", "values": [
      {"measurement": "Ki", "setting": "[1]", "value": 5, "unit": "nM"},
      {"measurement": "Ki", "setting": "[2]", "value": 5.3, "unit": "nM"}
    ]}
  ]
}
